# Laboratory results as given in ChEMBL document CHEMBL1128587, “Structure-based inhibitors of influenza virus sialidase. A benzoic acid lead with novel interaction” (J Med Chem, 1995).
# What was measured:
# Type in all cases: functional, organism-based
# Influenza A virus [1] = assay: The compound was tested in vitro for the inhibitory concentration against influenza N2 sialidase from whole virus by MUN assay
# Influenza A virus [2] = assay: The compound was tested in vitro for the inhibitory concentration against influenza N2 sialidase from whole virus by fetuin assay
# Influenza B virus [3] = assay: The compound was tested in vitro for the inhibitory concentration against influenza B/Mem/89 sialidase from whole virus by MUN assay
# Influenza B virus [4] = assay: The compound was tested in vitro for the inhibitory concentration against influenza B/Mem/89 sialidase from whole virus by fetuin assay
SMILES,IC50 (Influenza A virus [1]) [mM],IC50 (Influenza A virus [2]) [mM],IC50 (Influenza B virus [3]) [mM],IC50 (Influenza B virus [4]) [mM]
CC(=O)Nc1ccc(C(=O)O)cc1OC(C)=O,> 10,10,> 10,5
CC(=O)Nc1c(N)cc(C(=O)O)cc1O,> 10,> 10,10,> 10
CC(=O)Nc1ccc(C(=O)O)cc1N,> 10,> 10,> 20,
CC(=O)NC1C(O)CC(O)(C(=O)O)OC1[C@H](O)[C@H](O)CO (stereo partly drawn),,,> 10,
CC(=O)Nc1ccc(C(=O)O)cc1NC(=O)CCCN,> 10,> 10,> 10,> 10
CC(=O)Nc1ccc(C(=O)O)cc1[N+](=O)[O-],5,5,5,5
CC(=O)Nc1cc([N+](=O)[O-])c(C(=O)O)c([N+](=O)[O-])c1O,1,3,1,4
CC(=O)Nc1c(OC(C)=O)cc(C(=O)O)cc1[N+](=O)[O-],5,3,2,4
CC(=O)Nc1c(O)cc(C(=O)O)cc1[N+](=O)[O-],0.75,1,0.75,1
CC(=O)Nc1ccc(C(=O)O)cc1NC(=O)CO,4,> 10,3,10
CC(=O)Nc1ccc(C(=O)O)cc1NC(=O)C(O)CO (stereo not drawn),5,4,8,> 10
CC(=O)Nc1ccc(C(=O)O)cc1O [3-HYDROXY-4-ACETYLAMINOBENZOIC ACID],> 10,10,> 10,10
CC(=O)N[C@H]1[C@H]([C@H](O)[C@H](O)CO)OC(C(=O)O)=C[C@@H]1O [NEU5AC2EN],0.015,0.015,0.015,0.015
